Tests used:
wheat = assay: Test B pre/postemergence wheat; format: in vivo, Triticum aestivum
Method in brief: (§1)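 Test chemicals in a non-phytotoxic solvent mixture with surfactant were sprayed preemergence onto planted seeds and postemergence onto plants 2 to 18 cm tall (1- to 4-leaf stage). After twelve to sixteen days in a greenhouse, injury was visually rated against untreated controls from 0 (no effect) to 10 (complete control).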

duck salad = assay: Test B flood test duck salad; format: in vivo, Heteranthera limosa
Method in brief: (§2)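 Plants were grown to the 2-leaf stage before treatment with test chemical, then held in a greenhouse for twelve to sixteen days. Injury was visually rated against untreated controls on a 0–10 scale, where 0 is no effect and 10 is complete control.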

bamyardgrass = assay: Test B flood test barnyardgrass; format: in vivo, Echinochloa crus-galli
Method in brief: as §2

soybean = assay: Test B pre/postemergence soybean; format: in vivo, Glycine max
Method in brief: as §1

wild oat = assay: Test B pre/postemergence wild oat; format: in vivo, Avena fatua
Method in brief: as §1

velvetleaf = assay: Test B pre/postemergence velvetleaf; format: in vivo, Abutilon theophrasti
Method in brief: as §1

crabgrass = assay: Test B pre/postemergence crabgrass; format: in vivo, Digitaria sanguinalis
Method in brief: as §1

giant foxtail = assay: Test B pre/postemergence giant foxtail; format: in vivo, Setaria faberii
Method in brief: as §1

sugar beet = assay: Test B pre/postemergence sugar beet; format: in vivo, Beta vulgaris
Method in brief: as §1

morningglory = assay: Test B pre/postemergence morningglory; format: in vivo, Ipomoea hederacea
Method in brief: as §1

rape = assay: Test B pre/postemergence rape; format: in vivo, Brassica napus
Method in brief: as §1

corn = assay: Test B pre/postemergence corn; format: in vivo, Zea mays
Method in brief: as §1

pigweed = assay: Test B pre/postemergence pigweed; format: in vivo, Amaranthus retroflexus
Method in brief: as §1

purple nutsedge = assay: Test B pre/postemergence purple nutsedge; format: in vivo, Cyperus rotundus
Method in brief: as §1

cocklebur = assay: Test B pre/postemergence cocklebur; format: in vivo, Xanthium strumarium
Method in brief: as §1

rice = assay: Test B flood test rice; format: in vivo, Oryza sativa
Method in brief: as §2

[1] = Postemergence, Rate 500 g/ha, scale of 0 to 10 where 0 is no effect and 10 is complete control
[2] = Preemergence, Rate 62 g/ha, scale 0 to 10 (0 no effect, 10 complete control)
[3] = Preemergence, Rate 125 g/ha, scale of 0 to 10 where 0 is no effect and 10 is complete control
[4] = Preemergence, Rate 250 g/ha, scale 0 to 10, 0 is no effect, 10 is complete control
[5] = Preemergence, Rate 500 g/ha, scale 0 to 10, 0 is no effect, 10 is complete control
[6] = Rate 62 g/ha, flood test species, Pre-emergence, visual evaluation after twelve to sixteen days
[7] = Rate 125 g/ha, under heading Pre-emergence, flood test species, visual evaluation after twelve to sixteen days
[8] = Rate 250 g/ha, Pre-emergence (flood test species), scale 0 to 10, 0 is no effect, 10 is complete control
[9] = Rate 500 g/ha, Pre-emergence, flood test species, scale 0 to 10 (0 no effect, 10 complete control)
[10] = Postemergence, Rate 250 g/ha, scale 0 to 10, 0 is no effect, 10 is complete control
[11] = Postemergence, Rate 125 g/ha, scale 0 to 10, 0 is no effect, 10 is complete control
[12] = Rate 62 g/ha, Postemergence, scale of 0 to 10 where 0 is no effect and 10 is complete control

C=CC[Si](C)(C)Cn1c(=O)on(C(=O)N(c2ccc(Cl)cc2)C(C)C)c1=O [Compound 414]
Wheat plant response rating (wheat; [1]): 0 | Plant response rating, Wheat (wheat; [2]): 0 | Plant response rating, Wheat (wheat; [3]): 0 | Wheat plant response rating (wheat; [4]): 0 | Wheat plant response rating (wheat; [5]): 0 | Plant response rating, Ducksalad (0 to 10 scale, 0 is no effect, 10 is complete control) (duck salad; [6]): 0 | Ducksalad plant response rating (0 to 10 scale, 0 is no effect, 10 is complete control) (duck salad; [7]): 0 | Ducksalad plant response rating (duck salad; [8]): 0 | Ducksalad plant response rating (duck salad; [9]): 0 | Plant response rating, Barnyardgrass (0 to 10 scale, 0 is no effect, 10 is complete control) (bamyardgrass; [6]): 0 | Barnyardgrass plant response rating (0 to 10 scale, 0 is no effect, 10 is complete control) (bamyardgrass; [7]): 0 | Barnyardgrass plant response rating (bamyardgrass; [8]): 0 | Barnyardgrass plant response rating (bamyardgrass; [9]): 0 | Plant response rating, Soybean (soybean; [10]): 2 | Soybean plant response rating (soybean; [1]): 3 | Plant response rating, Soybean (soybean; [2]): 0 | Plant response rating, Soybean (soybean; [3]): 0 | Soybean plant response rating (soybean; [4]): 0 | Soybean plant response rating (soybean; [5]): 0 | Wild oats plant response rating (wild oat; [1]): 2 | Plant response rating, Wild oats (wild oat; [2]): 0 | Plant response rating, Wild oats (wild oat; [3]): 0 | Wild oats plant response rating (wild oat; [4]): 2 | Wild oats plant response rating (wild oat; [5]): 7 | Plant response rating, Velvetleaf (velvetleaf; [10]): 0 | Velvetleaf plant response rating (velvetleaf; [1]): 0 | Plant response rating, Velvetleaf (velvetleaf; [2]): 0 | Plant response rating, Velvetleaf (velvetleaf; [3]): 0 | Velvetleaf plant response rating (velvetleaf; [4]): 0 | Velvetleaf plant response rating (velvetleaf; [5]): 0 | Plant response rating, Crabgrass (crabgrass; [11]): 3 | Plant response rating, Crabgrass (crabgrass; [10]): 6 | Crabgrass plant response rating (crabgrass; [1]): 9 | Plant response rating, Crabgrass (crabgrass; [2]): 2 | Plant response rating, Crabgrass (crabgrass; [3]): 7 | Crabgrass plant response rating (crabgrass; [4]): 9 | Crabgrass plant response rating (crabgrass; [5]): 10 | Crabgrass plant response rating (crabgrass; [12]): 1 | Plant response rating, Giant foxtail (giant foxtail; [10]): 6 | Giant foxtail plant response rating (giant foxtail; [1]): 9 | Plant response rating, Giant foxtail (giant foxtail; [2]): 2 | Plant response rating, Giant foxtail (giant foxtail; [3]): 9 | Giant foxtail plant response rating (giant foxtail; [4]): 10 | Giant foxtail plant response rating (giant foxtail; [5]): 10 | Giant foxtail plant response rating (giant foxtail; [12]): 3 | Plant response rating, Sugarbeets (sugar beet; [10]): 0 | Sugarbeets plant response rating (sugar beet; [1]): 0 | Plant response rating, Sugarbeets (sugar beet; [2]): 0 | Plant response rating, Sugarbeets (sugar beet; [3]): 0 | Sugarbeets plant response rating (sugar beet; [4]): 0 | Sugarbeets plant response rating (sugar beet; [5]): 0 | Plant response rating, Morningglory (morningglory; [10]): 7 | Morningglory plant response rating (morningglory; [1]): 8 | Plant response rating, Morningglory (morningglory; [2]): 0 | Plant response rating, Morningglory (morningglory; [3]): 0 | Morningglory plant response rating (morningglory; [4]): 0 | Morningglory plant response rating (morningglory; [5]): 0 | Plant response rating, Rape (rape; [10]): 0 | Rape plant response rating (rape; [1]): 0 | Plant response rating, Rape (rape; [2]): 0 | Plant response rating, Rape (rape; [3]): 0 | Rape plant response rating (rape; [4]): 0 | Rape plant response rating (rape; [5]): 0 | Plant response rating, Corn (corn; [11]): 0 | Plant response rating, Corn (corn; [10]): 0 | Corn plant response rating (corn; [1]): 0 | Plant response rating, Corn (corn; [2]): 0 | Plant response rating, Corn (corn; [3]): 0 | Corn plant response rating (corn; [4]): 0 | Corn plant response rating (corn; [5]): 0 | Corn plant response rating (corn; [12]): 0 | Plant response rating, Redroot pigweed (pigweed; [10]): 0 | Redroot pigweed plant response rating (pigweed; [1]): 0 | Plant response rating, Redroot pigweed (pigweed; [2]): 0 | Plant response rating, Redroot pigweed (pigweed; [3]): 0 | Redroot pigweed plant response rating (pigweed; [4]): 0 | Redroot pigweed plant response rating (pigweed; [5]): 0 | Plant response rating, Nutsedge (purple nutsedge; [10]): 0 | Nutsedge plant response rating (purple nutsedge; [1]): 0 | Plant response rating, Nutsedge (purple nutsedge; [2]): 0 | Plant response rating, Nutsedge (purple nutsedge; [3]): 0 | Nutsedge plant response rating (purple nutsedge; [4]): 0 | Plant response rating, Cocklebur (cocklebur; [11]): 0 | Plant response rating, Cocklebur (cocklebur; [10]): 0 | Cocklebur plant response rating (cocklebur; [1]): 0 | Plant response rating, Cocklebur (cocklebur; [2]): 0 | Plant response rating, Cocklebur (cocklebur; [3]): 0 | Cocklebur plant response rating (cocklebur; [4]): 0 | Cocklebur plant response rating (cocklebur; [5]): 0 | Cocklebur plant response rating (cocklebur; [12]): 0 | Plant response rating, Rice (0 to 10 scale, 0 is no effect, 10 is complete control) (rice; [6]): 0 | Rice plant response rating (0 to 10 scale, 0 is no effect, 10 is complete control) (rice; [7]): 0 | Rice plant response rating (rice; [8]): 0 | Rice plant response rating (rice; [9]): 0

Reference: patent publication US6737383B1, “Herbicidal oxadiazolidines” (priority 1999, dated 2004)
